Reference: US20230203058A1, “MACROCYCLIC DIAMINE DERIVATIVES AS ENT INHIBITORS FOR THE TREATMENT OF CANCERS, AND COMBINATION THEREOF WITH ADENOSINE RECEPTOR ANTAGONISTS” (ITEOS BELGIUM SA, priority 2020, published 2023)

Biological target: T1, human ENT1 (Homo sapiens, UniProt Q99808)
T1 sequence (Q99808 1-456): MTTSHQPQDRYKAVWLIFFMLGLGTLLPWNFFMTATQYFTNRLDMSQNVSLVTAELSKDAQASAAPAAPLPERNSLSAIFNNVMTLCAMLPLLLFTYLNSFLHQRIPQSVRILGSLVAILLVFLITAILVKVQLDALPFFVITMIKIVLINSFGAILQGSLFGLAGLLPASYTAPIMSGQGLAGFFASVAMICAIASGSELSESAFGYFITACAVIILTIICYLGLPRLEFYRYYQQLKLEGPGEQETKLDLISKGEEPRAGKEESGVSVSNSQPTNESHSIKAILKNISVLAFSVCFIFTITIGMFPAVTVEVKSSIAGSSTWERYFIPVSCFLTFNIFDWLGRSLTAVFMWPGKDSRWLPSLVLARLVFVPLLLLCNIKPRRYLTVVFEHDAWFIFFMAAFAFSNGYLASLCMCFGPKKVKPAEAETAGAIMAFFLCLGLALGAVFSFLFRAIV
Experiment: ENT1 binding assay (competition with Sahenta-DY647 on JAR cells)
Design: JAR cells expressing ENT1 were bought from ATCC® (HTB-144TM); host or cells: JAR cells (human choriocarcinoma line; whole cells)
Settings: competition with Sahenta-DY647 100 nM, 4° C.
Experimental: The present assay aims at showing that the compounds of the present invention can bind to human ENT1. The principle of the assay is a competition between the compounds of this invention and Sahenta-DY647, an ENT1 inhibitor that emits fluorescence (Ex = 630 nm, Em = 670 nm). By measuring the fluorescence at the end of the assay we could assess the binding potency of the compounds of the present invention.
JAR cells expressing ENT1 were bought from ATCC® (HTB-144TM). Cells were cultured in RPMI 1640 medium (LONZA®, #BE12-702F/U1) supplemented with 10% FBS (GIBCO®, #10270-106), 10 mM Hepes (LONZA®, #BE17-737E), 1 mM Sodium Pyruvate (LONZA®, #BE13-115E) and 2% Penicillin/Streptomycin (LONZA®, #DE17-603E) at 37° C. and 5% CO2. The assay was conducted on the following buffer: HBSS (LONZA®, #LO-527F) supplemented with 10 mM Hepes (LONZA®, #BE17-737E) and 0.1% BSA (Miltenyi®, #130-091-376) on the day of the assay. JAR cells were resuspended in the described buffer. Compounds of the present invention and Sahenta-DY647 were diluted 200X in the described buffer.
A total of 50000 cells were pre-incubated for 30 min at 4° C. with the compounds of the present invention before adding the corresponded IC90 of Sahenta-DY647 (100 nM) and incubate once more for 30 min at 4° C. The total volume of the reaction was 100 µL (50 µL of cells, 25 µL of the compounds of the present invention and 25 µL of Sahenta-DY647) in a 96 well plate, U-bottom (Greiner®, #650-180). The plates were washed 2X by centrifugation (4 min, 400 rcf at 4° C.) in the same buffer. Cells were resuspended in 70 µL of the buffer and 50 µL was transferred to a Black 384 Optiplate (PerkinElmer®, #6007279). Fluorescence (Ex = 630 nm, Em = 670 nm) was acquired on a Spectramax i3x (Molecular Devices®).

SMILES	IC50 [nM]
COc1cc(C(=O)O[C@H]2CCCOc3cccc(c3)C(=O)OCCCN3CCCN(CC2)CC3)cc(OC)c1OC (stereo in doubt) [Compound 17, (12S)-6-oxo-5,8-dioxa-1(1,4)-diazepana-7(1,3)-benzenacyclotetradecaphane-12-yl 3,4,5-trimethoxybenzoate]	> 500
O=C1NCCCN2CCCN(CC[C@@H](OC(=O)c3ccccc3)CCCOc3cccc1c3)CC2 (stereo in doubt) [Compound 19, (12S)-6-oxo-8-oxa-5-aza-1(1,4)-diazepana-7(1,3)-benzenacyclotetradecaphane-12-yl benzoate]	> 500
O=C1NCCCN2CCCN(CC[C@H](OC(=O)c3ccccc3)CCCOc3cccc1c3)CC2 (stereo in doubt) [Compound 20, (12R)-6-oxo-8-oxa-5-aza-1(1,4)-diazepana-7(1,3)-benzenacyclotetradecaphane-12-yl benzoate]	> 500
COc1cc2cc(c1OC)OCCC[C@H](O/N=C/c1ccccc1)CCN1CCCN(CCCNC2=O)CC1 (stereo in doubt) [Compound 116, (E)-benzaldehyde O-((12S)-74,75-dimethoxy-6-oxo-8-oxa-5-aza-1(1,4)-diazepana-7(1,3)-benzenacyclotetradecaphane-12-yl) oxime]	> 500
COc1cc(C(=O)NC2CCCOc3cc(cc(OC)c3OC)C(=O)OCCCN3CCCN(CC2)CC3)cc(OC)c1OC (stereo not drawn) [Compound 3, N-(74,75-dimethoxy-6-oxo-5,8-dioxa-1(1,4)-diazepana-7(1,3)-benzenacyclotetradecaphane-12-yl)-3,4,5-trimethoxybenzamide]	> 500
COc1cc(C(=O)O[C@H]2CCCOc3cc(cc(OC)c3OC)C(=O)NCCCN3CCCN(CC2)CC3)cc(OC)c1OC [Compound 9, (12S)-74,75-dimethoxy-6-oxo-8-oxa-5-aza-1(1,4)-diazepana-7(1,3)-benzenacyclotetradecaphane-12-yl 3,4,5-trimethoxybenzoate]	> 500
COc1cc(C(=O)O[C@H]2CCCOc3cc(cc(OC)c3OC)C(=O)N(C)CCCN3CCCN(CC2)CC3)cc(OC)c1OC [Compound 12, (12S)-74,75-dimethoxy-5-methyl-6-oxo-8-oxa-5-aza-1(1,4)-diazepana-7(1,3)-benzenacyclotetradecaphane-12-yl 3,4,5-trimethoxybenzoate]	> 500
COc1cc(C(=O)O[C@H]2CCCn3ncc4c(Cl)cc(cc43)C(=O)NCCCN3CCCN(CC2)CC3)cc(OC)c1OC [Compound 15, (10S)-14-chloro-2-oxo-11H-3-aza-1(6,1)-indazola-7(1,4)-diazepanacyclotridecaphane-10-yl 3,4,5-trimethoxybenzoate]	> 500
COc1cc(C(=O)O[C@@H]2CCCn3ncc4c(Cl)cc(cc43)C(=O)NCCCN3CCCN(CC2)CC3)cc(OC)c1OC [Compound 16, (10R)-14-chloro-2-oxo-11H-3-aza-1(6, 1)-indazola-7(1,4)-diazepanacyclotridecaphane-10-yl 3,4,5-trimethoxybenzoate]	20 to 500
COc1cc(C(=O)OC2CCCOc3cc(cc(Cl)c3Cl)C(=O)OCCCN3CCCN(CC2)CC3)cc(OC)c1OC (stereo not drawn) [Compound 21, 74,75-dichloro-6-oxo-5,8-dioxa-1(1,4)-diazepana-7(1,3)-benzenacyclotetradecaphane-12-yl 3,4,5-trimethoxybenzoate]	1 to 20
COc1cc(C(=O)O[C@H]2CCCOc3cc(cc(Cl)c3Cl)C(=O)OCCCN3CCCN(CC2)CC3)cc(OC)c1OC [Compound 22, (12S)-74,75-dichloro-6-oxo-5,8-dioxa-1(1,4)-diazepana-7(1,3)-benzenacyclotetradecaphane-12-yl 3,4,5-trimethoxybenzoate]	20 to 500
COc1cc(C(=O)O[C@@H]2CCCOc3cc(cc(Cl)c3Cl)C(=O)OCCCN3CCCN(CC2)CC3)cc(OC)c1OC [Compound 23, (12R)-74,75-dichloro-6-oxo-5,8-dioxa-1(1,4)-diazepana-7(1,3)-benzenacyclotetradecaphane-12-yl 3,4,5-trimethoxybenzoate]	20 to 500
COc1cc2cc(c1OC)OCCCC(OC(=O)c1ccc(Cl)c(Cl)c1)CCN1CCCN(CCCOC2=O)CC1 (stereo not drawn) [Compound 24, 74,75-dimethoxy-6-oxo-5,8-dioxa-1(1,4)-diazepana-7(1,3)-benzenacyclotetradecaphane-12-yl 3,4-dichlorobenzoate]	20 to 500
COc1cc(C(=O)O[C@H]2CCCn3cc4c(Cl)cc(cc4n3)C(=O)NCCCN3CCCN(CC2)CC3)cc(OC)c1OC [Compound 25, (11Z, 16E, 10S)-14-chloro-2-oxo-12 H-3-aza-1(6,2)-indazola-7(1,4)-diazepanacyclotridecaphane-10-yl 3,4,5-trimethoxybenzoate]	> 500
COc1cc(C(=O)O[C@@H]2CCCn3cc4c(Cl)cc(cc4n3)C(=O)NCCCN3CCCN(CC2)CC3)cc(OC)c1OC [Compound 26, (11Z, 16E, 10R)-14-chloro-2-oxo-12H-3-aza-1(6,2)-indazola-7(1,4)-diazepanacyclotridecaphane-10-yl 3,4,5-trimethoxybenzoate]	> 500
COc1cc2cc(c1OC)OCCCC(OC(=O)c1ccc(F)c(Cl)c1)CCN1CCCN(CCCOC2=O)CC1 (stereo not drawn) [Compound 27, 74,75-dimethoxy-6-oxo-5,8-dioxa-1(1,4)-diazepana-7(1,3)-benzenacyclotetradecaphane-12-yl 3-chloro-4-fluorobenzoate]	1 to 20
COc1cc(C(=O)O[C@@H]2CCCOc3cc(cc(Cl)c3C(N)=O)C(=O)NCCCN3CCCN(CC2)CC3)cc(OC)c1OC [Compound 28, (12R)-74-carbamoyl-75-chloro-6-oxo-8-oxa-5-aza-1(1,4)-diazepana-7(1,3)-benzenacyclotetradecaphane-12-yl 3,4,5-trimethoxybenzoate]	1 to 20
COc1cc2cc(c1OC)OCCCC(OC(=O)c1ccc(F)cc1)CCN1CCCN(CCCOC2=O)CC1 (stereo not drawn) [Compound 29, 74,75-dimethoxy-6-oxo-5,8-dioxa-1(1,4)-diazepana-7(1,3)-benzenacyclotetradecaphane-12-yl 4-fluorobenzoate]	1 to 20
COc1cc2cc(c1OC)OCCCC(OC(=O)c1ccc(OC(F)(F)F)cc1)CCN1CCCN(CCCOC2=O)CC1 (stereo not drawn) [Compound 30, 74,75-dimethoxy-6-oxo-5,8-dioxa-1(1,4)-diazepana-7(1,3)-benzenacyclotetradecaphane-12-yl 4-(trifluoromethoxy)benzoate]	20 to 500
COc1cc2cc(c1OC)OCCC[C@@H](OC(=O)c1ccccc1)CCN1CCCN(CCCOC2=O)CC1 [Compound 31, (12R)-74,75-dimethoxy-6-oxo-5,8-dioxa-1(1,4)-diazepana-7(1,3)-benzenacyclotetradecaphane-12-yl benzoate]	1 to 20
COc1cc(C(=O)O[C@@H]2CCCOc3cc(cc(OC)c3OC)C(=O)OCCCC3CCN(CC3)CC2)cc(OC)c1OC [Compound 34, (R)-74,75-dimethoxy-6-oxo-5,8-dioxa-1(4,1)-piperidina-7(1,3)-benzenacyclotetradecaphane-12-yl 3,4,5-trimethoxybenzoate]	1 to 20
COc1cc2cc(c1OC)OCCC[C@@H](OC(=O)c1ccccc1)CCN(C)CCN(C)CCCOC2=O [Compound 35, (R)-15,16-dimethoxy-9,12-dimethyl-17-oxo-2,16-dioxa-9,12-diaza-1(1,3)-benzenacycloheptadecaphane-6-yl benzoate]	1 to 20
COc1cc2cc(c1OC)OCCCC(O)CCN1CCCN(CCCOC2=O)CC1 (stereo not drawn) [Compound 38, 12-hydroxy-74,75-dimethoxy-5,8-dioxa-1(1,4)-diazepana-7(1,3)-benzenacyclotetradecaphan-6-one]	> 500
COc1cc2cc(c1OC)OCCC[C@H](O)CCN1CCCN(CCCOC2=O)CC1 [Compound 40, (12S)-12-hydroxy-74,75-dimethoxy-5,8-dioxa-1(1,4)-diazepana-7(1,3)-benzenacyclotetradecaphan-6-one]	> 500
